Test results reported in patent publication US20170151266A1, “METHODS AND COMPOSITIONS FOR ENHANCED DRUG DELIVERY TO THE EYE AND EXTENDED DELIVERY FORMULATIONS” (THE REGENTS OF THE UNIVERSITY OF COLORADO, A BODY, priority 2011, published 2017).
Values joined by “and” are separate entries in the source; they are usually repeats but may differ in a detail not shown here. Equal entries are not always repeated.

Experiments:
[1] = tested on: blood retinal barrier leakage; conditions: diabetic rats; eye drops twice daily for 60 days; C-SA 0.2% w/v, C-SA-T 1.0% w/v
Procedure: After overnight fasting for 12-16 h, an intraperitoneal injection of 30 mg/ml solution of streptozotocin in 10 mM citrate buffer (pH 4.5) was administered (60 mg/kg body weight) to induce diabetes. After 3-4 h of streptozotocin injection, animals were put on regular diet and 24 h after streptozotocin injection, blood sample (5-10 μl) was collected via tail vein. The blood glucose levels in the animals were determined with a glucose monitor (One Touch; Life Scan Inc., Milpitas, Calif.). Animals with blood glucose levels greater than 250 mg/dL were considered diabetic. The animals were divided into four groups. […] Treatment was started immediately after diabetes induction. […]
Retinal FITC-Dextran Leakage: BN rats from each group were used for the assessment of FITC-dextran leakage. […] The relative FITC-dextran fluorescence units in 1 ml of supernatant were measured using a spectrofluorometer set at an excitation wavelength of 483 nm and an emission wavelength of 538 nm. Fluorescence of blank PBS was also
measured for subtraction from each sample reading. Final concentration of FITC-dextran was expressed as μg/g tissue. […] 20 μ (˜20 mg) of plasma was diluted to 1 ml (50 times dilution) with PBS for quantification under the linear range of the standard samples. […] The amount of FITC-dextran leakage in to the ocular tissues was calculated using the following equation, after correcting for dilutions.

[2] = tested on: retinal leukostasis; conditions: diabetic rats; eye drops twice daily for 60 days; C-SA 0.2% w/v, C-SA-T 1.0% w/v
Procedure: After overnight fasting for 12-16 h, an intraperitoneal injection of 30 mg/ml solution of streptozotocin in 10 mM citrate buffer (pH 4.5) was administered (60 mg/kg body weight) to induce diabetes. After 3-4 h of streptozotocin injection, animals were put on regular diet and 24 h after streptozotocin injection, blood sample (5-10 μl) was collected via tail vein. The blood glucose levels in the animals were determined with a glucose monitor (One Touch; Life Scan Inc., Milpitas, Calif.). Animals with blood glucose levels greater than 250 mg/dL were considered diabetic. The animals were divided into four groups. […] Treatment was started immediately after diabetes induction. Both eyes were dosed twice daily for 60 days in group 2, 3 and 4 with their respective treatment. Animals in groups 2-4 were sacrificed at the end of 2 months. Normal animals in group 1 were sacrificed immediately after acclimatization in the animal facility. For each of the three assays, namely, FITC-Dextran leakage, vitreous-to-plasma protein ratio, and leukostasis, we used 4 animals from each of the four groups mentioned above.
BN rats from each group were used for the assessment of adherent leukocytes. At 1 hour after last dose on day 61, rats were sacrificed for ex-vivo retinal leukostasis assay. First, the animals were anesthetized with ketamine (80 mg/kg) and xylazine (12 mg/kg) administered intraperitoneally. […]

[3] = for binding/association constant (K, Ka) with melanin: 1 mg/ml melanin suspension in PBS (pH 7.4), 37° C., celecoxib 2 μg/ml, pro-drugs 250 μg/ml
[4] = In vitro transport across bovine sclera-choroid-RPE (celecoxib series)
From the text: (§1) Freshly excised bovine eyes procured from a local slaughter house were used for all in vitro transport studies. Fatty or adherent tissue all around the eye is removed first. Cornea and conjunctiva were then removed. For isolation of sclera and choroid-RPE (CRPE), the anterior segment of the eye was removed with a circumferential cut below the limbus. The eye was cut into two halves along the geometric axis, a line joining the anterior pole (corneal center) and the posterior pole (center of the scleral curve), and the vitreous was removed. Neural retina was removed by exposing the eyecup to isotonic assay buffer at pH 7.4. Equatorial region of the remaining sclera-choroid-RPE (SCRPE) was used as is for SCRPE transport studies. All transport studies for celecoxib were performed in presence of 5% HP-β-CD. […] Drug solutions were prepared in the following manner: Celecoxib (100 μg/ml) in presence of 5% HP-β-CD was made after triturating celecoxib with HP-β-CD in a pestle-mortar followed by addition of assay buffer. The mixture was stirred for 24 h. Before use, the clear solution was filtered through 0.2 μ filter. […] All transport experiments were performed for 6 h at 37° C. Samples were collected at regular time intervals from the receiver side with replacement with fresh assay buffer (pH 7.4). Transport studies with all solutes were performed in A to B direction meaning outward to inward (eg. sclera towards choroid-RPE) movement of the solute was measured. […] Samples from all the transport studies were analyzed on LC-MS/MS.

[5] = tested on: blood retinal barrier leakage; conditions: diabetic rats; eye drops twice daily for 60 days; C-SA 0.2% w/v, C-SA-T 1.0% w/v; remark: listed apart in the source
Procedure: The animals were divided into four groups.
Plasma samples were stored at −80° C.

[6] = In vitro transport across bovine cornea
From the text: as §1

[7] = In vitro transport across bovine conjunctiva
From the text: Freshly excised bovine eyes procured from a local slaughter house were used for all in vitro transport studies. Fatty or adherent tissue all around the eye is removed first. Cornea and conjunctiva were then removed. For isolation of sclera and choroid-RPE (CRPE), the anterior segment of the eye was removed with a circumferential cut below the limbus. The eye was cut into two halves along the geometric axis, a line joining the anterior pole (corneal center) and the posterior pole (center of the scleral curve), and the vitreous was removed. Neural retina was removed by exposing the eyecup to isotonic assay buffer at pH 7.4. Equatorial region of the remaining sclera-choroid-RPE (SCRPE) was used as is for SCRPE transport studies. All transport studies for celecoxib were performed in presence of 5% HP-β-CD. […] Drug solutions were prepared in the following manner: Celecoxib (100 μg/ml) in presence of 5% HP-β-CD was made after triturating celecoxib with HP-β-CD in a pestle-mortar followed by addition of assay buffer. The mixture was stirred for 24 h. Before use, the clear solution was filtered through 0.2 μ filter. […] Transport studies with all solutes were performed in A to B direction meaning outward to inward (eg. sclera towards choroid-RPE) movement of the solute was measured. […] Samples from all the transport studies were analyzed on LC-MS/MS.

[8] = Aqueous solubility (Solaq) listed in physicochemical property tables; conditions: pH 7.4, 25° C.
[9] = tested on: ARPE19 cells; conditions: at nanomolar concentrations, glucocorticoid-receptor mediated; cited from earlier work
[10] = In vitro transscleral transport of budesonide/budesonide pro-drugs; format: in vitro ADME, bovine; conditions: sclera to RPE direction (A to B); 6 h; 37° C.
From the text: Freshly excised bovine eyes were used in all studies. […] Equatorial region of the remaining sclera-choroid-[…]) was used as is for SCRPE transport studies. […] Isotonic assay buffer (pH 7.4) with the following composition was used during the entire tissue isolation procedure and transport study: […] Two hundred microliters of sample was collected from the receiver side at specific time intervals and replenished with fresh buffer. The drug/pro-drug content in the receiver and donor samples was analyzed using an LC-MS/MS method.

[11] = Pharmacokinetic model of budesonide succinate transport; set-up: species or system bovine; conditions: PK model, A to B in presence of inhibitor (FIG. 4A)
From the text: Circles on left side (5 BSA; 6 B) represent the donor chamber whereas circles on right side (7 BSA; 8 B) represent the receiver chamber for BSA transport in A to B direction. 6 B and 8 B were included and represent budesonide formed/transported during the course of transport study. A separate compartment was included to account for the pro-drug/parent drug loss due to tissue absorption. K5>0 represents rate constant for drug loss into the tissue, K5>6 and K7>8 represent rate constants for pro-drug conversion into parent drug on donor and receiver side respectively. […] K5>7 Act represent active transport rate constant and contribution (0.5%) of active diffusion in BSA transport.
The model was developed in such a way that it accounted for transport of pro-drug from the donor to the receiver side, transport of parent drug formed in the donor chamber to the receiver side over the period of transport study, loss of pro-drug/drug into the tissues and any backward transport from the receiver to the donor side. The transport rate constants for parent drug and pro-drug were calculated from the cumulative percentage transport values. Rate constant for conversion of pro-drug to the parent drug was calculated from the percentage of the pro-drug and parent drug formed. Model was run with the dose amounts observed in the donor and receiver sides after 6 h transport studies. […]

[12] = Ex vivo transscleral delivery after posterior subconjunctival injection in euthanized rats; set-up: species or system Brown Norway (BN) rats
Procedure: All animals were handled according to the ARVO statement for the use of Animals in Ophthalmic and Vision Research. […] Drug suspensions were shaken before each posterior subconjunctival injection. Rats were divided into two groups. […] Twenty-five microliters of budesonide suspension was injected using a 30 G needle in the posterior subconjunctival space of one eye of each animal and the other eye was not treated. At the end of 1 h, eyes were enucleated and immediately frozen in dry ice and isopentane bath. All samples were stored at −80 ° C. until LCMS/MS analysis. […] At the end of 1 h, the eyes were enucleated and frozen in a similar manner as above until analysis. Periocular tissue samples were also collected from both the groups at the end of the study. Different ocular tissues including sclera, choroid-RPE, retina, and vitreous were isolated and analyzed for drug levels.

[13] = In vivo delivery of bevacizumab in rats, ocular fluorophotometry after intravitreal injection; set-up: species or system rat; conditions: day 15
Procedure: Rats were anesthetized by intraperitoneal injection of ketamine (35 mg/kg)/xylazine (5 mg/kg) and once the rats were under anesthesia, betadine solution was applied on the eye surface, and intravitreal injections were made using a 30-G needle. […] Baseline fluorescence values of eyes were monitored before injecting the formulations. At each time point, three fluorometric scans were taken and the mean value was used.

[14] = 10 μl eye drop, 2 mg/ml; 1 h
Procedure: At the end of 1 h, the animals were euthanized and the eyes were enucleated. Periocular tissue and plasma samples were collected.
Sample processing: Acetonitrile precipitation method was used for drug extraction from the tissues. Briefly, eyes from each eye drop study were dissected for tissue isolation. Tissues were homogenized in 250 μl water (pH 7.4 adjusted with 5 mM ammonium acetate) containing indoprofen as internal standard at a concentration of 500 ng/ml (1000 ng/ml stock was made). Similar volume of acetonitrile was added and mixed well by vortexing for 30 minutes. Samples were centrifuged at 15,000 rpm for 30 minutes. Supernatant was collected for LC-MS/MS analysis.
Total run time was 5.5 min.

[15] = Group 2, 25 μl of 1 mg/ml suspension, posterior subconjunctival, 1 h
[16] = end of 6 h, 37° C., 100 μg/ml, celecoxib in 5% HP-β-CD

Cc1ccc(-c2cc(C(F)(F)F)nn2-c2ccc(S(=O)(=O)NC(=O)CCC(=O)O)cc2)cc1 [C-SA, Celecoxib succinamidic acid]
retinal FITC-dextran leakage (mean± s.d.) [1]: 93.66 ± 37.08 µL/g/min | Mean retinal leukocyte count [2]: 95±12 | binding/association constant (K, Ka) with melanin [3]: 8.89×10^3 M^−1 and 8.89 E3 M^−1

Cc1ccc(-c2cc(C(F)(F)F)nn2-c2ccc(S(=O)(=O)NC(=O)CCC(=O)NCCS(=O)(=O)O)cc2)cc1 [C-SA-T, celecoxib succinamidic acid taurine]
retinal FITC-dextran leakage (mean± s.d.) [1]: 23.64 ± 4.20 µL/g/min | Mean retinal leukocyte count [2]: 47±10 | Transport across bovine sclera-choroid-RPE, times higher than celecoxib [4]: ~20 times | reduction in transport across SCRPE with taurine as an inhibitor [4]: > 50% | average vitreous-to-plasma protein ratio [5]: 0.28±0.06 | Transport across bovine cornea, times higher than celecoxib [6]: ~25 times | reduction in transport across cornea with taurine as an inhibitor [6]: > 50% | Transport across bovine conjunctiva, times higher than celecoxib [7]: ~4 times | binding/association constant (K, Ka) with melanin [3]: 7.39×10^3 M^−1 and 7.93 E3 M^−1 | melanin binding, fold lower than that of celecoxib ([3]; ITC): ~130 fold

CCCC1O[C@@H]2C[C@H]3[C@@H]4CCC5=CC(=O)C=C[C@]5(C)[C@H]4[C@@H](O)C[C@]3(C)[C@]2(C(=O)CO)O1 (stereo partly drawn) [Budesonide]
Solaq ([8]; Table 1): Budesonide (0.02) mg/ml | VEGF secretion and mRNA expression [9]: capable of reducing | cumulative percentage transport [10]: 0.2%

CN(C)C[C@@H]1CCn2cc(c3ccccc32)C2=C(C(=O)NC2=O)c2cn(c3ccccc23)CCO1 [Ruboxistaurin]
Solaq ([8]; Table 4): Ruboxistaurin (0.029) mg/ml

Succinic acid mono-budesonide ester [budesonide succinate]
contribution of active diffusion in BSA transport [11]: 0.5% | ex vivo drug level (pro-drug) in CRPE [12, 15]: 0.6 μg/g tissue | ex vivo drug level (pro-drug) in retina [12, 15]: 0.2 μg/g tissue | ex vivo drug level (pro-drug) in sclera [12, 15]: 1.9 μg/g tissue | ex vivo drug level (pro-drug) in vitreous [12, 15]: 0.05 μg/g tissue | ex vivo level of budesonide released from budesonide succinate in CRPE [12, 15]: 7.2 μg/g tissue | ex vivo level of budesonide released from budesonide succinate in retina [12, 15]: 2.2 μg/g tissue | ex vivo level of budesonide released from budesonide succinate in sclera [12, 15]: 11.0 μg/g tissue | ex vivo level of budesonide released from budesonide succinate in vitreous [12, 15]: 0.5 μg/g tissue | budesonide delivery in sclera, choroid-RPE and retina, higher with prodrug compared to plain drug budesonide ([12]; rat): 2-5 folds

Alexa-bevacizumab solution: Alexa Fluor 488 conjugated bevacizumab injected as solution (control)
Alexa-bevacizumab concentration in the vitreous [13]: 2.2 µg/mL

Cc1ccc(-c2cc(C(F)(F)F)nn2-c2ccc(S(N)(=O)=O)cc2)cc1 [Celecoxib, reference compound]
level in cornea, celecoxib compared with CSA [14]: higher than CSA | level in iris and CRPE, celecoxib compared with C-SA [14]: higher | level in periocular space, celecoxib compared with CSA [14]: lower than that of CSA | Transport across bovine sclera-choroid-RPE [4, 16]: approximately 0.1% | Solaq ([8]; Table 2): Celecoxib (0.005) mg/ml | Cumulative percent transport across bovine cornea [6, 16]: 0.017% | Transport across bovine conjunctiva [7, 16]: 3.9% | binding/association constant (K, Ka) with melanin [3]: 1.01×10^6 M^−1 and 1.01 E6 M^−1
